According to publication PMC7139875, “4-Pyridinio-1,4-Dihydropyridines as Calcium Ion Transport Modulators: Antagonist, Agonist, and Dual Action” (Oxidative Medicine and Cellular Longevity, 2020):
Like-named read-outs stand apart in the source and are kept apart here.

Assays:
isolated rat aortic ring = assay: Isolated rat aortic ring model, KCl precontracted denuded rings; settings: KCl precontracted denuded rat aortic rings; read-out: Calcium channel blocking activity EC50
Experimental: The experimental animal (one rat) was anesthetized with pentobarbital sodium (60 mg/kg i.p.). Once deep anesthesia was achieved, the thoracic aorta was dissected, placed in ice cold Krebs-Henseleit (K-H) buffer (content in mM: NaCl 118, KCl 4.7, CaCl2 2.5, MgCl2 1.64, NaHCO3 24.88, KH2PO4 1.18, glucose 10.0, sodium pyruvate 5.0, and disodium salt of ethylenediaminetetraacetic acid 0.05), cleaned from connective and fatty tissues, and cut into 3-4 mm long rings. Endothelium was mechanically scraped off with the tips of forceps, and the aortic rings were mounted between two stainless steel hooks attached to an isometric force transducer in 20 ml organ bath in K-H buffer bubbled with 95% O2 and 5% CO2 at 37°C (one separate aortic ring was used for each tested compound). Passive tension was adjusted to approximately 40 mN over a 60 min equilibration period. The experiment was started after the equilibration period by adding KCl solution to obtain a concentration of 50 mM. Addition of KCl induced contraction of the aortic rings, and a plateau of contraction was reached about […]. Thereafter, the tested compound solutions in dimethyl sulfoxide were added to the aortic rings in order to obtain the final concentrations in the range of 10^−10-10^−5 M. Changes in the tension were recorded using LabChart Pro software from ADInstruments (https://www.adinstruments.com/products/labchart/labchart-for-research). The EC50 values of the tested compounds were calculated using Prism 3.0 software from GraphPad (GraphPad Software Inc., USA) (https://www.graphpad.com/scientific-software/prism/). The experimental procedures involving experimental animals were carried out in accordance with the guidelines of the European Community, LR local laws and policies, and were approved by the Latvian Animal Protection Ethical Committee, the Food and Veterinary Service, Riga, Latvia.

[1] = system: Ca2+ ion channel activity evoked by compound 4 in SH-SY5Y cells; assay: Inhibitor analysis of Ca2+ ion channel activity evoked by compound 4; format: cell-based, human
Experimental: The intracellular free Ca^2+ concentration [Ca^2+]i was measured in confluent monolayers of SH-SY5Y or […] cells with the Ca^2+-sensitive fluorescent indicator Fluo-4 NW according to the instruction (Fluo-4 NW Calcium Assay Kit, Thermo Fisher Scientific, cat. No. F36206) (as referenced by […] al.. Changes in [Ca^2+]i were measured from the fluorescence emitted at 516 nm due to alternate excitation at 494 nm using the microplate reader Tecan Infinite M1000 (Austria). Intracellular Ca^2+ concentration was calculated from a standard curve with known amounts of free Ca^2+ using the standard Ca^2+-EGTA buffering system (Calcium Calibration Buffer Kit, cat. No.C-3008, Thermo Fisher Scientific). […] The commercial calcium agonist compound Bay […] was used as the reference compound.

[2] = system: carbachol-dependent mobilization of intracellular Ca2+ in SH-SY5Y cells; assay: Antagonist effect on carbachol-evoked intracellular Ca2+ mobilization (Fluo-4 NW); format: cell-based, human; settings: Homo sapiens; SH-SY5Y cells, 100 nM carbachol, 15 min preincubation; read-out: Antagonist activity (IC50)
Experimental: (§1) The intracellular free Ca^2+ concentration [Ca^2+]i was measured in confluent monolayers of SH-SY5Y or A7R5 cells with the Ca^2+-sensitive fluorescent indicator Fluo-4 NW according to the instruction (Fluo-4 NW Calcium Assay Kit, Thermo Fisher Scientific, cat. No. F36206) (as referenced by Vilskersts et al..
The investigation of Ca^2+ channel blocking activity of DHP derivatives was based on the effect of DHP on carbachol evoked intracellular Ca^2+ mobilization in human neuroblastoma cells.
The cells were preincubated in the dark for 15 minutes with the tested compounds at concentrations ranging from 0.16 to 100 μM. The application of carbachol (100 nM) to […] NW loaded SH-SY5Y cells stimulated a classic “biphasic” response. The well-known 3rd generation calcium channel inhibitor amlodipine, which is also claimed to act as antioxidant and free radical scavenger, was used as the positive control (at the concentration range from 20 to 100 μM).
(§2) Changes in [Ca^2+]i were measured from the fluorescence emitted at 516 nm due to alternate excitation at 494 nm using the microplate reader Tecan Infinite M1000 (Austria). Intracellular Ca^2+ concentration was calculated from a standard curve with known amounts of free Ca^2+ using the standard Ca^2+-EGTA buffering system (Calcium Calibration Buffer Kit, cat. No.C-3008, Thermo Fisher Scientific).
The IC50 values for the tested compounds were calculated using GraphPad Prism 4.0 software.

[Ca2+]i in SH-SY5Y cells = Ca2+ channel agonist activity, [Ca2+]i in Fluo-4 NW-loaded cells; format: cell-based, human; settings: compound at 100 μM
Experimental: as §1
For the investigation of Ca^2+ channel agonist activity of the DHP compound, 4 […] NW loaded SH-SY5Y or A7R5 cells were stimulated by the addition of compound 4 at the concentration range from 4 to 100 μM. The well-known calcium channel agonist Bay K8644 was used as the positive control (at the concentration range from 4 to 100 μM).
as §2
In some experiments, […] NW loaded cells were washed and placed in normal Ca^2+-free HEPES-buffered replacement medium. In Ca^2+ restoration experiments, Ca^2+ was initially absent from the medium and was restored to 1 mM after 870 s of stimulation with compound 4.

[3] = system: carbachol-dependent mobilization of intracellular Ca2+ in SH-SY5Y cells; design: method as in earlier work; settings: SH-SY5Y cells stimulated by 100 nM carbachol; read-out: Antagonist effect IC50; cited from earlier work

- EC50 (isolated rat aortic ring): 0.0143 ± 0.0003 µM
- IC50 ([1]; Homo sapiens, 100 μM compound 4, SH-SY5Y cells, read-out: IC50 for inhibition of Ca2+ ion channel activity evoked by compound 4): 100 µM
- IC50 [2]: 11 ± 2 µM
SMILES: CCOC(=O)C1=C(COCCN)NC(C)=C(C(=O)OC)C1c1ccccc1Cl (stereo not drawn) [Amlodipine]
- inhibition at 100 µM ([1]; Homo sapiens, SH-SY5Y, inhibitor 100 μM, 15 min preincubation, 100 μM compound 4): 50 ± 11%
- Inhibition (%) of Ca2+ ion channel activity evoked by compound 4 ([1]; inhibitor 4 μM, 100 μM compound 4): 0 ± 6%
- Inhibition (%) of Ca2+ ion channel activity evoked by compound 4 ([1]; inhibitor 20 μM, 100 μM compound 4): 10 ± 11%
- Phase of the compound 4 response that is inhibited ([1]; inhibitor 100 μM, 100 μM compound 4): inhibited the first phase of the response
- Agonist activity (RFU, 100 μM) ([Ca2+]i in SH-SY5Y cells): No effect
- IC50 [3]: 13 µM
